# Laboratory results: patent publication US10875851B2, “Factor XIIa inhibitors” (Merck Sharp & Dohme Corp., priority 2016, dated 2020)
# pIC50: −log10 of the molar value.
# Target: human Factor XIIa (Homo sapiens (Human), UniProt P00748)
# Assay: Factor XIIa Assay
# Type: biochemical
# Conditions: purified human Factor XIIa 500 pM; substrate n-Acetyl-Lys-Pro-Arg-AFC 100 μM; pH 7.4; read-out: FXIIa IC50
# Procedure, shortened: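 Purified human FXIIa at 500 pM final with 100 μM n-Acetyl-Lys-Pro-Arg-AFC in 50 mM HEPES, 150 mM NaCl, 5 mM CaCl2, 0.1% PEG 8000, pH 7.4, at room temperature or 37° C. Initial fluorogenic hydrolysis rates measured after enzyme–inhibitor equilibration; IC50 taken where Vi=Vo/2.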
# Chain of human Factor XIIa (P00748 373-615): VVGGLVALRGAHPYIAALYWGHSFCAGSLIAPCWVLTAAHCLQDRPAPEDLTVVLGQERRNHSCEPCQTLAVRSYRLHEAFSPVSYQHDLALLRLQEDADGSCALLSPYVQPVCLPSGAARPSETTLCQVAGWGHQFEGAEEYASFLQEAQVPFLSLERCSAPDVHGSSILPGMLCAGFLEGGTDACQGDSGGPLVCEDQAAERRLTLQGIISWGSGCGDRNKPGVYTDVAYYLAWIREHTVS
row,Structure (SMILES),pIC50
1,"C[C@@H]1N=C(N2CCN(C(=O)[C@@H](CCCCN(C)C)NC3CCCCC3)[C@H](C(=O)NCc3cccs3)C2)O[C@H]1c1cccc(C#N)c1 [Example 138, (2S)-4[(4S,5S)-5-(3-cyanophenyl)-4-methyl-4,5-dihydro-1,3-oxazol-2-yl]-1-(N^2-cyclohexyl-N^6,N^6-dimethyl-D-lysyl)-N-(thiophen-2-ylmethyl)piperazine-2-carboxamide]",8.85
2,"O=C(NCc1cccs1)[C@@H]1CN(C(=O)Oc2ccccc2Cl)CCN1C(=O)[C@H](NC1CCCCC1)C1CCN(S(=O)(=O)C2CC2)CC1 [Example 62, 2-chlorophenyl (3S)-4-{(2R)-2-(cyclohexylamino)-2-[1-(cyclopropylsulfonyl)piperidin-4-yl]acetyl}-3-[(thiophen-2-ylmethyl)carbamoyl]piperazine-1-carboxylate]",8.77
3,"O=C(NCc1cccs1)[C@@H]1CN(C(=O)Oc2ccccc2Cl)CCN1C(=O)[C@@H](CCCCN1CCCCC1)NC1CCC2(CC1)CCN(Cc1ccccc1)C2 (stereo partly drawn) [Example 88, 2-chlorophenyl (3S)-4-[N-(2-benzyl-2-azaspiro[4.5]dec-8-yl)-6-piperidin-1-yl-D-norleucyl]-3-[(thiophen-2-ylmethyl)carbamoyl]piperazine-1-carboxylate]",9.05
4,"COc1cc(CNC(=O)[C@@H]2CN(C(=O)Oc3cccc(CN)c3)CCN2C(=O)[C@@H](CCCCNS(C)(=O)=O)NC2CCC3(CC2)CCN(Cc2ccccc2)C3)ccc1CN (stereo partly drawn) [Example 76, 3-(aminomethyl)phenyl (3S)-3-{[4-(aminomethyl)-3-methoxybenzyl]carbamoyl}-4-[N^2-(2-benzyl-2-azaspiro[4.5]dec-8-yl)-N^6= (methylsulfonyl)-D-lysyl]piperazine-1-carboxylate]",8.39
5,"NCc1ccc(CNC(=O)[C@@H]2CN(C(=O)Oc3cccc4ccccc34)CCN2C(=O)[C@@H](CC2CCCCC2)NC2CCCCC2)cc1 [Example 26, naphthalen-1-yl (3S)-3-{[4-(aminomethyl)benzyl]carbamoyl}-4-(N,3-dicyclohexyl-D-alanyl)piperazine-1-carboxylate]",8.08
6,"CN(C)CCCC[C@@H](NC1CCC2(CC1)CCN(Cc1ccccc1)C2)C(=O)N1CCN(C(=O)Oc2ccccc2Cl)C[C@H]1C(=O)NCc1cccs1 (stereo partly drawn) [Example 90, 2-chlorophenyl (3S)-4-[N^2-(2-benzyl-2-azaspiro[4.5]dec-8-yl)-N^6,N^6-dimethyl-D-lysyl]-3-[(thiophen-2-ylmethyl)carbamoyl]piperazine-1-carboxylate]",9.15
7,"O=C(NCc1cccs1)[C@@H]1CN(C(=O)Oc2ccccc2Cl)CCN1C(=O)[C@@H](CCCCN1CCOCC1)NC1CCC2(CC1)CCN(Cc1ccccc1)C2 (stereo partly drawn) [Example 95, 2-chlorophenyl (3S)-4-[N-(2-benzyl-2-azaspiro[4.5]dec-8-yl)-6-morpholin-4-yl-D-norleucyl]-3-[(thiophen-2-ylmethyl)carbamoyl]piperazine-1-carboxylate]",8.74
8,"COc1cc(CNC(=O)[C@@H]2CN(C(=O)Oc3ccc4ccccc4c3Cl)CCN2C(=O)[C@@H](CC2CCCCC2)NC2CCCCC2)ccc1CN [Example 44, 1-chloronaphthalen-2-yl (3S)-3-{[4-(aminomethyl)-3-methoxybenzyl]carbamoyl}-4-(N,3-dicyclohexyl-D-alanyl)piperazine-1-carboxylate]",8.57
9,"Cc1ccc(OC(=O)N2CCN(C(=O)[C@@H](CCCCN(C)C)N(C)C3CCCCC3)[C@H](C(=O)NCc3cccs3)C2)c(Cl)c1C [Example 101, 2-chloro-3,4-dimethylphenyl (3S)-4-(N^2-cyclohexyl-N^2,N^6,N^6-trimethyl-D-lysyl)-3-[(thiophen-2-ylmethyl)carbamoyl]piperazine-1-carboxylate]",10.00
10,"C[C@H]1N=C(N2CCN(C(=O)[C@@H](CC3CCCCC3)NC3CCCCC3)[C@H](C(=O)NCc3cccs3)C2)O[C@H]1c1ccccc1 [Example 114, (2S)-1-(N,3-dicyclohexyl-D-alanyl)-4-[(4R,5S)-4-methyl-5-phenyl-4,5-dihydro-1,3-oxazol-2-yl]-N-(thiophen-2-ylmethyl)piperazine-2-carboxamide]",7.77
11,"CN(C)CCCC[C@@H](NC1CCCCC1)C(=O)N1CCN(C(=O)CC2CCCC2)C[C@H]1C(=O)NCc1cccs1 [Example 99, (2S)-1-(N^2-cyclohexyl-N^6,N^6-dimethyl-D-lysyl)-4-(cyclopentylacetyl)-N-(thiophen-2-ylmethyl)piperazine-2-carboxamide]",7.53
12,"COc1cc(CNC(=O)[C@@H]2CN(C3=NC(C)(C)[C@H](c4ccccc4)O3)CCN2C(=O)[C@@H](CCCCN(C)C)N(C)C)ccc1C(N)=O [Example 154, (2S)-N-(4-carbamoyl-3-methoxybenzyl)-4-[(5S)-4,4-dimethyl-5-phenyl-4,5-dihydro-1,3-oxazol-2-yl]-1-(N^2,N^2,N^6,N^6-tetramethyl-D-lysyl)piperazine-2-carboxamide]",7.91
13,"Cc1ccc(OC(=O)N2CCN(C(=O)[C@H](N)CCCCN3CCCCC3)[C@H](C(=O)NCc3cccs3)C2)c(Cl)c1C [Example 111, 2-chloro-3,4-dimethylphenyl (3S)-4-(6-piperidin-1-yl-D-norleucyl)-3-[(thiophen-2-ylmethyl)carbamoyl]piperazine-1-carboxylate]",8.30
14,"NCc1ccc(OC(=O)N2CCN(C(=O)[C@@H](CC3CCCCC3)NC3CCCCC3)[C@H](C(=O)NCc3cccs3)C2)c(Cl)c1 [Example 21, 4-(aminomethyl)-2-chlorophenyl (3S)-4-(N,3-dicyclohexyl-D-alanyl)-3-[(thiophen-2-ylmethyl)carbamoyl]piperazine-1-carboxylate]",8.17

# Now from value to molecule:
row,pIC50,Structure (SMILES)
1,7.47,"C[C@@H]1N=C(N2CCN(C(=O)[C@@H](CCCCNS(C)(=O)=O)NC3CCCCC3)[C@H](C(=O)NCc3cccs3)C2)O[C@@H]1c1ccccc1 [Example 152, (2S)-1-[N^2-cyclohexyl-N^6-(methylsulfonyl)-D-lysyl]-4-[(4S,5R)-4-methyl-5-phenyl-4,5-dihydro-1,3-oxazol-2-yl]-N-(thiophen-2-ylmethyl)piperazine-2-carboxamide]"
2,7.86,"CC(C)N[C@H](CCCCN1CCCCC1)C(=O)N1CCN(C2=NC(C)(C)C(c3ccccc3)O2)C[C@H]1C(=O)NCc1cccc(Cl)c1 (stereo partly drawn) [Example 160, (2S)-N-(3-chlorobenzyl)-4-(4,4-dimethyl-5-phenyl-4,5-dihydro-1,3-oxazol-2-yl)-1-[N-(1-methylethyl)-6-piperidin-1-yl-D-norleucyl]piperazine-2-carboxamide]"
3,8.77,"CC(C)N[C@H](CCCCN1CCCCC1)C(=O)N1CCN(C2=N[C@@H](C)[C@H](c3ccccc3)O2)C[C@H]1C(=O)NCc1ccc(CN)c(Cl)c1 [Example 179, (2S)-N-[4-(aminomethyl)-3-chlorobenzyl]-1-[N-(1-methylethyl)-6-piperidin-1-yl-D-norleucyl]-4-[(4S,5S)-4-methyl-5-phenyl-4,5-dihydro-1,3-oxazol-2-yl]piperazine-2-carboxamide]"
4,9.30,"CC(C)N[C@H](CCCCN1CCCCC1)C(=O)N1CCN(C2=N[C@@H](C)[C@H](c3ccccc3)O2)C[C@H]1C(=O)NCc1ccc2[nH]cc(Cl)c2c1 [Example 171, (2S)-N-[(3-chloro-1H-indol-5-yl)methyl]-1-[N-(1-methylethyl)-6-piperidin-1-yl-D-norleucyl]-4-[(4S,5S)-4-methyl-5-phenyl-4,5-dihydro-1,3-oxazol-2-yl]piperazine-2-carboxamide]"
5,8.18,"CC(C)N[C@H](CCCCN1CCCCC1)C(=O)N1CCN(C2=N[C@@H](C)[C@H](c3ccccc3)O2)C[C@H]1C(=O)NCc1cccc(Cl)c1 [Example 175, (2S)-N-(3-chlorobenzyl)-1-[N-(1-methylethyl)-6-piperidin-1-yl-D-norleucyl]-4-[(4S,5S)-4-methyl-5-phenyl-4,5-dihydro-1,3-oxazol-2-yl]piperazine-2-carboxamide]"
6,8.34,"CC(C)N[C@H](CCCCN1CCCCC1)C(=O)N1CCN(C2=N[C@@H](C)[C@H](c3ccccc3)O2)C[C@H]1C(=O)NCc1cc(CN)cs1 [Example 178, (2S)-N-{[4-(aminomethyl)thiophen-2-yl]methyl}-1-[N-(1-methylethyl)-6-piperidin-1-yl-D-norleucyl]-4-[(4S,5S)-4-methyl-5-phenyl-4,5-dihydro-1,3-oxazol-2-yl]piperazine-2-carboxamide]"
7,7.99,"C[C@@H]1N=C(N2CCN(C(=O)[C@@H](CCCCNS(C)(=O)=O)NC3CCC4(CC3)CCN(Cc3ccccc3)C4)[C@H](C(=O)NCc3cccs3)C2)O[C@H]1c1ccccc1 (stereo partly drawn) [Example 128, (2S)-1-[N^2-(2-benzyl-2-azaspiro[4.5]dec-8-yl)-N^6-(methylsulfonyl)-D-lysyl]-4-[(4S,5S)-4-methyl-5-phenyl-4,5-dihydro-1,3-oxazol-2-yl]-N-(thiophen-2-ylmethyl)piperazine-2-carboxamide]"
8,7.26,"CC1(C)N=C(N2CCN(C(=O)[C@H](N)CCCCN3CCCCC3)[C@H](C(=O)NCc3cc4cnccc4s3)C2)OC1c1ccccc1 (stereo partly drawn) [Example 158, (2S)-4-(4,4-dimethyl-5-phenyl-4,5-dihydro-1,3-oxazol-2-yl)-1-(6-piperidin-1-yl-D-norleucyl)-N-(thieno[3,2-c]pyridin-2-ylmethyl)piperazine-2-carboxamide]"
9,8.24,"CN(C)CCCC[C@H](C(=O)N1CCN(C2=NC(C)(C)C(c3ccccc3)O2)C[C@H]1C(=O)NCc1ccc2[nH]cc(Cl)c2c1)N(C)C (stereo partly drawn) [Example 146, (2S)-N-[(3-chloro-1H-indol-5-yl)methyl]-4-(4,4-dimethyl-5-phenyl-4,5-dihydro-1,3-oxazol-2-yl)-1-(N^2,N^2,N^6,N^6-tetramethyl-D-lysyl)piperazine-2-carboxamide]"
10,7.85,"C[C@H]1N=C(N2CCN(C(=O)[C@@H](CCCCNS(C)(=O)=O)NC3CCCCC3)[C@H](C(=O)NCc3cccs3)C2)O[C@H]1c1ccccc1 [Example 151, (2S)-1-[N^2-cyclohexyl-N^6-(methylsulfonyl)-D-lysyl]-4-[(4R,5S)-4-methyl-5-phenyl-4,5-dihydro-1,3-oxazol-2-yl]-N-(thiophen-2-ylmethyl)piperazine-2-carboxamide]"
